In this test the target is T1, α-7 nicotinic acetylcholine receptor channel expressed in HEK 293 cells (Rattus norvegicus, UniProt Q05941).
T1 construct: expressed in transfected cells
Kind of test: Ca2+-sensitive fluorescence-based FLIPR assay, α7 nicotinic ACh receptor channel function (agonist). Type of test: cell-based. To be noted: Table Ib, HEK 293 cells, agonist Ca2+ flux. The essentials:
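Potency and efficacy derived from kinetic FLIPR Ca²⁺-flux fluorescence, recorded 3 min after compound addition in Hanks buffer following a 10 s baseline.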
In general terms: Calcium assays in cells follow changes in intracellular calcium, usually with a dye or a luminescent sensor.

Setting [1] is: FLIPR α7 activity rating (EC50, nM).

Structures are written as SMILES. A value given as a limit tells only on which side of the number the result lay.

Usually EC50 stands for the midpoint of the concentration-response curve.

T1 sequence (Q05941 23-502): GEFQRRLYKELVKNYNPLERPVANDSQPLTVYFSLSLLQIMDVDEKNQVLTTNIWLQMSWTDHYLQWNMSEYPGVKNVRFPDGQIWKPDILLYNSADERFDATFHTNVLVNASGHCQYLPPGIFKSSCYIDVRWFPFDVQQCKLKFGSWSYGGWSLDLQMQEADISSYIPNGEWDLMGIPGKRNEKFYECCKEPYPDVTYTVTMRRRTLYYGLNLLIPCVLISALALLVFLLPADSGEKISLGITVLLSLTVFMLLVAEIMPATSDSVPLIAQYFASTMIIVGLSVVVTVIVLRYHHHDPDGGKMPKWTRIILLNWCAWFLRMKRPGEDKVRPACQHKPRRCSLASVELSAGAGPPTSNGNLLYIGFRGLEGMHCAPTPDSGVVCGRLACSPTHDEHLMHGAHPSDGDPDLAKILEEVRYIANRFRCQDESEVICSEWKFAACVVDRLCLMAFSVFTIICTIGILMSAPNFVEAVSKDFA

Under setting [1], `Fc1ccc(F)c2cc(NC3=NC[C@@]4(CN5CCC4CC5)O3)ncc12` [Example 320, (R)—N-(5,8-Difluoroisoquinolin-3-yl)-4H-1′-azaspiro[oxazole-5,3′-bicyclo[2.2.2]octan]-2-amine] registered a half-maximal effective concentration (EC50) of less than 100 nM.
On to `Fc1ccc2cnc(NC3=NC[C@@]4(CN5CCC4CC5)O3)nc2c1` [Example 321, (R)—N-(7-Fluoroquinazolin-2-yl)-4H-1′-azaspiro[oxazole-5,3′-bicyclo[2.2.2]octan]-2-amine], for which the EC50 under setting [1] is less than 100 nM.
On the same count and under the same terms, to `Clc1cccc2nc(NC3=NC[C@@]4(CN5CCC4CC5)O3)ncc12` [Example 322, (R)—N-(5-Chloroquinazolin-2-yl)-4H-1′-azaspiro[oxazole-5,3′-bicyclo[2.2.2]octan]-2-amine] belongs less than 100 nM; to `Fc1cccc2nc(NC3=NC[C@@]4(CN5CCC4CC5)O3)ncc12` [Example 323, (R)—N-(5-Fluoroquinazolin-2-yl)-4H-1′-azaspiro[oxazole-5,3′-bicyclo[2.2.2]octan]-2-amine], less than 100 nM.
For the molecule `Cc1nc(NC2=NC[C@@]3(CN4CCC3CC4)O2)nc2cc(F)ccc12` [Example 324, (R)—N-(7-Fluoro-4-methylquinazolin-2-yl)-4H-1′-azaspiro[oxazole-5,3′-bicyclo[2.2.2]octan]-2-amine], the EC50 under setting [1] was less than 100 nM.
Turning to `Cc1nc(NC2=NC[C@@]3(CN4CCC3CC4)O2)cc2cc(F)ccc12` [Example 325, (R)—N-(6-Fluoro-1-methylisoquinolin-3-yl)-4H-1′-azaspiro[oxazole-5,3′-bicyclo[2.2.2]octan]-2-amine], the half-maximal effective concentration (EC50) (FLIPR α7 (EC50, nM)) was determined as 139 nM and the EC50 under setting [1] was 100 to 1000 nM.
Consider `Cc1nc(NC2=NC[C@@]3(CN4CCC3CC4)O2)cc2cc(Cl)ccc12` [Example 326, (R)—N-(6-Chloro-1-methylisoquinolin-3-yl)-4H-1′-azaspiro[oxazole-5,3′-bicyclo[2.2.2]octan]-2-amine], for which the 50% effective concentration (EC50) under setting [1] was in the range of 100 to 1000 nM.
On the same count and under the same terms, to `Cc1nc(NC2=NC[C@@]3(CN4CCC3CC4)O2)cc2ccc(F)cc12` [Example 327, (R)—N-(7-Fluoro-1-methylisoquinolin-3-yl)-4H-1′-azaspiro[oxazole-5,3′-bicyclo[2.2.2]octan]-2-amine] belongs 100 to 1000 nM; to `Cc1nc(NC2=NC[C@@]3(CN4CCC3CC4)O2)cc2c(F)cc(F)cc12` [Example 328, (R)—N-(5,7-Difluoro-1-methylisoquinolin-3-yl)-4H-1′-azaspiro[oxazole-5,3′-bicyclo[2.2.2]octan]-2-amine], 100 to 1000 nM; to `CSc1ccc(-c2cc(NC3=NC[C@@]4(CN5CCC4CC5)O3)ncn2)cn1` [Example 329, (R)—N-(6-(6-(Methylthio)pyridin-3-yl)pyrimidin-4-yl)-4H-1′-azaspiro[oxazole-5,3′-bicyclo[2.2.2]octan]-2-amine], less than 100 nM.
The same measure, in the same setting: the result for `Fc1ncccc1-c1cc(NC2=NC[C@@]3(CN4CCC3CC4)O2)ncn1` [Example 330, (R)—N-(6-(2-Fluoropyridin-3-yl)pyrimidin-4-yl)-4H-1′-azaspiro[oxazole-5,3′-bicyclo[2.2.2]octan]-2-amine] reads less than 100 nM.
In the case of `Fc1ccc(-c2cc(NC3=NC[C@@]4(CN5CCC4CC5)O3)ncn2)cn1` [Example 331, (R)—N-(6-(6-Fluoropyridin-3-yl)pyrimidin-4-yl)-4H-1′-azaspiro[oxazole-5,3′-bicyclo[2.2.2]octan]-2-amine], the EC50 under setting [1] is less than 100 nM.
Still for that read-out and setting: the result for `Fc1cncc(-c2cc(NC3=NC[C@@]4(CN5CCC4CC5)O3)ncn2)c1` [Example 332, (R)—N-(6-(5-Fluoropyridin-3-yl)pyrimidin-4-yl)-4H-1′-azaspiro[oxazole-5,3′-bicyclo[2.2.2]octan]-2-amine] reads less than 100 nM; that for `Cn1nccc1-c1cc(NC2=NC[C@@]3(CN4CCC3CC4)O2)ncn1` [Example 333, (R)—N-(6-(1-Methyl-1H-pyrazol-5-yl)pyrimidin-4-yl)-4H-1′-azaspiro[oxazole-5,3′-bicyclo[2.2.2]octan]-2-amine], less than 100 nM.
